Source: patent US5506238A, “Biphenylmethane derivative and pharmacological use” (Eisai Co., Ltd., priority 1989, dated 1996)

Legend:
[1] = system: pressor reaction of angiotensin II; test: Inhibition of pressor reaction of angiotensin II on anesthetized rat (Wistar Kyoto) having blocked ganglions; type: in vivo; conditions: iv, 0.05 h, ganglion-blocked Wistar Kyoto rat, i.v., 3 min after administration, read-out: Dose necessary for shifting about doubled shift of pressor reaction of angiotensin toward right (ED50)
Protocol: (2) Inhibition of pressor reaction of angiotensin II on anesthetized rat (Wistar Kyoto) having blocked ganglions
A 9 to 25 week-old Wistar Kyoto male rat (Charles River Japan) was anesthetized with 50 mg/kg pentobarbital sodium intraperitoneally, and the carotid and jugular were cannulated. The carotid cannula was connected to a piezoelectric transducer (TP-200T), and recording was conducted with a polygraph system (RM-6000 manufactured by Nihon Koden Corp.) through a carrier amplifier (AP-601G manufactured by Nihon Koden Corp.) and an average blood pressure measuring panel (Nihon Koden Corp.) utilizing the integration of pulse waves. 10 mg/kg of pentolinium was administered intravenously through the jugular cannula to conduct ganglion blockade. […] Then, 0.1 to 10 mg/kg of the test compound was administered intravenously, and 0.03 to 1 μg/kg of angiotensin II was again administered intravenously 3 min after the administration of the test compound to determine the rate of shift of the dose-pressor reaction curve toward the right. A dose (C, ED50, mg/kg, i.v.) necessary for bringing about doubled shift of the dose-pressor reaction curve toward the right was determined from the dose of the antagonist (A, mg/kg, i.v.) and the above-described rate of shift (B). [formula]

[2] = target: T1, angiotensin II contracture of rabbit aortic strip (Oryctolagus cuniculus, UniProt P34976); test: Angiotensin II contracture antagonism through the use of rabbit aortic strip; type: cell-based, rabbit (New Zealand white); conditions: negative log of antagonist concentration giving dose ratio 2, Schild's equation, 40 min preincubation, read-out: pA2 (converted)
T1 construct: A spiral preparation of the aorta having a width of 1.5 to 2 mm and a length of 15 to 20 mm was prepared therefrom; from tissue; host or cells: thoracic aorta of male New Zealand white rabbit, spiral strip
T1 sequence (P34976 1-359): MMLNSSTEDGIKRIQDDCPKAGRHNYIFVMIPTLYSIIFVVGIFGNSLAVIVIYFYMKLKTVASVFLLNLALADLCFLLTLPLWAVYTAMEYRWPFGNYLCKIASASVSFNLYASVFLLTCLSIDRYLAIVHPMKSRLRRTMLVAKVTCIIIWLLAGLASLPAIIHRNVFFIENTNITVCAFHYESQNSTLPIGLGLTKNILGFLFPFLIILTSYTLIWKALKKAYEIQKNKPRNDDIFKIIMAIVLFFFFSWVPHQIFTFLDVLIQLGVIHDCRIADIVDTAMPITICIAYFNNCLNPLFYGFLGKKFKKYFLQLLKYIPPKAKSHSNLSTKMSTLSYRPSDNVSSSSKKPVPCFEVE
Protocol: (1) Angiotens in II contracture antagonism through the use of rabbit aortic strip A male New Zealand white rabbit having a weight of 2 to 3 kg was anesthetized with pentobarbital sodium, and the thoracic aorta was removed. A spiral preparation of the aorta having a width of 1.5 to 2 mm and a length of 15 to 20 mm was prepared therefrom and suspended in a 10-ml Magnus tank containing a Krebs bicarbonate solution (Krebs bicarbonate (mM): NaCl 118.4, KCl 4.7, CaCl2 2.0, MgSO4.7H2O 1.2, NaHCO3.25.0, KH2 PO4 1.2, glucose 11.1). 10^-5 M indomethacine was added thereto to eliminate the influence of prostaglandin. The Krebs solution was maintained at 37° C. and bubbled with 95% O2 -5% CO2. An initial tension of 1 g was applied to the strip, and the strip was allowed to stand for about 1 hr. Then, 50 mM KCl was added thereto to induce contracture. After the contracture was stabilized, the strip was washed. The above procedure was repeated twice, and the second contracture was taken as 100% contracture. Thereafter, angiotensin II was accumulatively added from 10^-10 to 3×10^-6 to prepare a dose-reaction curve. […] The contraction was recorded on a multi-pen recorder (R-10 manufactured by Rika Denki Kogyo Co., Ltd.) through a carrier amplifier (A[…] or A[…] manufactured by Nihon Koden Corp.) by making use of an isometric piezoelectric transducer ([…] manufactured by Nihon Koden Corp.). The potency of the angiotensin II antagonist was determined by calculating negative logarithm (-log) of a concentration of pA2 value [i.e., a concentration of competitive antagonist which makes the dose ratio of the active agent 2] through the use of Schild's equation.

[3] = Seven-day repeated oral administration, observation of death in SD rats; type: in vivo; conditions: 100 mg/kg/day orally for seven days; eight week-old male SD rats; observed until 24 hr after final administration
Protocol: Further, compound Nos. 1, 2, 5 and 6 listed in the above-described Table 1 were suspended in 0.5% MC (methylcellulose), and the suspension was orally administered to an eight week-old male SD (Sprague Dawley) rats (4 rats per group) in a dose of 100 mg/kg/day for seven days. The rats were observed until 24 hr after the final administration.

Kb [2]	SMILES	ED50 [1]	death [3]
0.661 nM	Cc1ccnc2c1nc(C(C)C)n2Cc1ccc(-c2ccccc2-c2nnn[nH]2)cc1 [compound 10]	0.42 mg/kg	–
2.14 nM	Cc1ccnc2c1nc(C1CC1)n2Cc1ccc(-c2ccccc2C(=O)O)cc1 [compound 18]	0.075 mg/kg	–
0.0115 nM	CCCc1nc2c(C)ccnc2n1Cc1ccc(-c2cc(Cl)ccc2-c2nnn[nH]2)cc1 [compound 21]	0.071 mg/kg	–
1.15 nM	CCCc1nc2c(C)cc(C)nc2n1Cc1ccc(-c2ccccc2C(=O)O)cc1 [compound 23]	0.08 mg/kg	–
5.25 nM	CCSc1nc2c(C)ccnc2n1Cc1ccc(-c2ccccc2C(=O)O)cc1 [compound 20]	0.41 mg/kg	–
2.95 nM	CCc1nc2ccc(Cl)nc2n1Cc1ccc(-c2ccccc2-c2nnn[nH]2)cc1 [compound 14]	0.35 mg/kg	–
0.575 nM	CCOc1nc2c(C)cc(C)nc2n1Cc1ccc(-c2ccccc2C(=O)O)cc1 [compound 32]	0.018 mg/kg	–
8.71 nM	CCCc1nc2c(Cl)ccnc2n1Cc1ccc(-c2ccccc2C(=O)O)cc1 [compound 13]	0.66 mg/kg	–
0.182 nM	CCOc1nc2c(C)cc(C)nc2n1Cc1ccc(-c2ccccc2-c2nnn[nH]2)cc1 [compound 31]	0.01 mg/kg	–
0.182 nM	CCSc1nc2c(C)ccnc2n1Cc1ccc(-c2ccccc2-c2nnn[nH]2)cc1 [compound 11]	0.04 mg/kg	–
0.0263 nM	CCOc1nc2c(C)ccnc2n1Cc1ccc(-c2ccccc2-c2nnn[nH]2)cc1 [compound 26]	0.0084 mg/kg	–
4.9 nM	Cc1ccnc2c1nc(C1CCC1)n2Cc1ccc(-c2ccccc2C(=O)O)cc1 [compound 19]	0.25 mg/kg	–
0.891 nM	CC#Cc1nc2c(C)ccnc2n1Cc1ccc(-c2ccccc2-c2nnn[nH]2)cc1 [compound 28]	0.04 mg/kg	–
1.35 nM	CCCc1nc2c(C)c(Cl)cnc2n1Cc1ccc(-c2ccccc2-c2nnn[nH]2)cc1 [compound 15]	0.32 mg/kg	–
23.4 nM	CCCc1ccnc2c1nc(CC)n2Cc1ccc(-c2ccccc2-c2nnn[nH]2)cc1 [compound 9]	1.33 mg/kg	–
10 nM	CCc1nc2cc(Br)cnc2n1Cc1ccc(-c2ccccc2-c2nnn[nH]2)cc1 [compound 4]	1.57 mg/kg	–
0.024 nM	CCCc1nc2c(C)cc(C)nc2n1Cc1ccc(-c2ccccc2-c2nnn[nH]2)cc1 [compound 22]	0.04 mg/kg	–
3.39 nM	Cc1ccnc2c1nc(C1CC1)n2Cc1ccc(-c2cc(Cl)ccc2C(=O)O)cc1 [compound 29]	0.06 mg/kg	–
0.132 nM	COc1nc2c(C)ccnc2n1Cc1ccc(-c2ccccc2-c2nnn[nH]2)cc1 [compound 30]	0.016 mg/kg	–
0.0229 nM	Cc1ccnc2c1nc(C1CC1)n2Cc1ccc(-c2ccccc2-c2nnn[nH]2)cc1 [compound 7]	0.022 mg/kg	–
0.0138 nM	Cc1cc(C)c2nc(C3CC3)n(Cc3ccc(-c4ccccc4-c4nnn[nH]4)cc3)c2n1 [compound 24]	0.015 mg/kg	–
0.372 nM	CCCOc1nc2c(C)ccnc2n1Cc1ccc(-c2ccccc2-c2nnn[nH]2)cc1 [compound 27]	0.034 mg/kg	–
0.525 nM	CSc1nc2c(C)ccnc2n1Cc1ccc(-c2ccccc2-c2nnn[nH]2)cc1 [compound 12]	0.13 mg/kg	–
3.55 nM	CCCc1nc2c(C)ccnc2n1Cc1ccc(-c2ccccc2C(=O)O)cc1 [compound 17]	0.17 mg/kg	–
3.16 nM	CCc1nc2c(C)ccnc2n1Cc1ccc(-c2ccccc2C(=O)O)cc1 [compound 16]	0.29 mg/kg	–
1.55 nM	CCCc1nc2cccnc2n1Cc1ccc(-c2cc(Cl)ccc2-c2nnn[nH]2)cc1 [compound 3]	0.44 mg/kg	–
4.27 nM	CCCCc1nc2cccnc2n1Cc1ccc(-c2cc(OC)ccc2-c2nnn[nH]2)cc1 [compound 8]	0.71 mg/kg	–
0.589 nM	Cc1cc(C)c2nc(C3CC3)n(Cc3ccc(-c4ccccc4C(=O)O)cc3)c2n1 [compound 25]	0.021 mg/kg	–

SMILES	Kb [2]	ED50 [1]	death [3]
CCCCc1nc2ccccc2n1Cc1ccc(-c2ccccc2-c2nn[nH]n2)cc1 [compound 1]	7.76 nM	0.74 mg/kg	no death was observed
CCc1nc2c(C)ccnc2n1Cc1ccc(-c2ccccc2-c2nnn[nH]2)cc1 [compound 6]	0.0912 nM	0.019 mg/kg	no death was observed
CCCc1nc2c(C)ccnc2n1Cc1ccc(-c2ccccc2-c2nn[nH]n2)cc1 [compound 5]	0.0468 nM	0.029 mg/kg	no death was observed
CCCc1nc2cccnc2n1Cc1ccc(-c2ccccc2-c2nn[nH]n2)cc1 [compound 2]	0.832 nM	0.15 mg/kg	no death was observed
